Laboratory results published in patent publication US8859493B2, “Insulin derivatives” (Novo Nordisk A/S, priority 2005, dated 2014).

Target: human insulin receptor (Homo sapiens, UniProt P06213)
Assay: Insulin receptor binding, SPA (Scintillation Proximity Assay) microtiterplate antibody capture assay
Conditions: relative to human insulin; purified recombinant human insulin receptor - exon 11; A14 Tyr[125I]-human insulin tracer; 16 hours incubation
Protocol: The affinity of the insulin analogues of the invention for the human insulin receptor was determined by a SPA assay (Scintillation Proximity Assay) microtiterplate antibody capture assay. SPA-PVT antibody-binding beads, anti-mouse reagent (Amersham Biosciences, Cat No. PRNQ0017) were mixed with 25 ml of binding buffer (100 mM HEPES pH 7.8; 100 mM sodium chloride, 10 mM MgSO4, 0.025% Tween-20). Reagent mix for a single Packard Optiplate (Packard No. 6005190) is composed of 2.4 μl of a 1:5000 diluted purified recombinant human insulin receptor—exon 11, an amount of a stock solution of A14 Tyr[^125I]-human insulin corresponding to 5000 cpm per 100 μl of reagent mix, 12 μl of a 1:1000 dilution of F12 antibody, 3 ml of SPA-beads and binding buffer to a total of 12 ml. A total of 100 μl was then added and a dilution series is made from appropriate samples. To the dilution series was then added 100 μl of reagent mix and the samples were incubated for 16 hours while gently shaken. The phases were the then separated by centrifugation for 1 min and the plates counted in a Topcounter. The binding data were fitted using the nonlinear regression algorithm in the GraphPad Prism 2.01 (GraphPad Software, San Diego, Calif.).

human insulin receptor, sequence (P06213 28-746 isoform P06213-2 limits assumed): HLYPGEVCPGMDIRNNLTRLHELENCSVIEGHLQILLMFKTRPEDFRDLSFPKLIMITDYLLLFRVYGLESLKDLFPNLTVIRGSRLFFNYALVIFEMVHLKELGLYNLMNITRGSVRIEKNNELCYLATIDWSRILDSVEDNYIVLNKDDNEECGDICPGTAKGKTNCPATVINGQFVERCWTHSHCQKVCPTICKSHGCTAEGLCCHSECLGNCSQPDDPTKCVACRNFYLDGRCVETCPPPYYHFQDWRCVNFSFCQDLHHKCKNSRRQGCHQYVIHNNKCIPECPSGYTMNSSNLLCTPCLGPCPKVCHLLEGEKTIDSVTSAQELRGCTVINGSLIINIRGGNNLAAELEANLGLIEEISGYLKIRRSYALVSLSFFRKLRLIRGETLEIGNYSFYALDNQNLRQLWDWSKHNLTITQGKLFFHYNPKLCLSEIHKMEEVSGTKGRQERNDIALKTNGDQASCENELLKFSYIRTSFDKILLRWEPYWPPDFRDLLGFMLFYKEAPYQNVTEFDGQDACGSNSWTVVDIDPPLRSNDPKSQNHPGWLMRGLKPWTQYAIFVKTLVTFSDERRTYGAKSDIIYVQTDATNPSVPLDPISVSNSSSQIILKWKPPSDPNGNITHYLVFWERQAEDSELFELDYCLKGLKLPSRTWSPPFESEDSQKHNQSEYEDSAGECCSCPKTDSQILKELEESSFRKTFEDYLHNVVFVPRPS
human insulin receptor, sequence (P06213 763-1382 partner limits assumed): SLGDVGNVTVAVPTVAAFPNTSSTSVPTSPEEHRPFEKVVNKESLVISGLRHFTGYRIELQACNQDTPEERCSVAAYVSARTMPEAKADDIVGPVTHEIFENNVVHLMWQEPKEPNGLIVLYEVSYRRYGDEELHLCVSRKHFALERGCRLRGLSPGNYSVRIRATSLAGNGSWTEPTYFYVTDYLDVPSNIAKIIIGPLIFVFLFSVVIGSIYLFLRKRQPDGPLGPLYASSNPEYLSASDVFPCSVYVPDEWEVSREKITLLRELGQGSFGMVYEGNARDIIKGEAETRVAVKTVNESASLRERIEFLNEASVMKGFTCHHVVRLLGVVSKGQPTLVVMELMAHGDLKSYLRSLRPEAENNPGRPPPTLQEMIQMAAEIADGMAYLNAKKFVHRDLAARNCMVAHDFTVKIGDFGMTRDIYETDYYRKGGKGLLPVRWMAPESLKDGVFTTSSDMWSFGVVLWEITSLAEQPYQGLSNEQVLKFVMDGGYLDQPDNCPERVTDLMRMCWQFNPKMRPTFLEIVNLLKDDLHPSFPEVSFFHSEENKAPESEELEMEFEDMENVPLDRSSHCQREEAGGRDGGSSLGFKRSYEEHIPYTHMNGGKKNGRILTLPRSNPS

In order of rising “Insulin receptor affinity in relation to human insulin” value:
1. N^εB29-(ω-[2-(2-{2-[2-(2-carboxy-ethoxy)-ethoxy]-ethoxy}-ethoxy)-ethylcarbamoyl]-heptadecanoyl-γ-glutamyl) desB30 human insulin [example 5]  5.6
2. N^εB29-3-[2-(2-{2-[2-(ω-carboxy-heptadecanoylamino)-ethoxy]-ethoxy}-ethoxy)-ethoxy]-propionyl-γ-glutamyl desB30 human insulin [example 6]  8.3
3. N^εB29-(ω-[2-(2-{2-[2-(2-carboxy-ethoxy)-ethoxy]-ethoxy}-ethoxy)-ethylcarbamoyl]-heptadecanoyl-α-glutamyl) desB30 human insulin [example 4]  9.2
4. N^εB29-(3-[2-{2-(2-[ω-carboxy-pentadecanoyl-γ-glutamyl-(2-amino-ethoxy)]-ethoxy)-ethoxy}-ethoxy]-propionyl) desB30 human insulin [example 1]  11
5. N^εB29-(3-[2-{2-(2-[ω-carboxy-heptadecanoyl-γ-glutamyl-(2-amino-ethoxy)]-ethoxy)-ethoxy}-ethoxy]-propionyl) desB30 human insulin [example 2]  12
6. N^εB29-{3-[2-(2-{2-[2-(15-carboxy-pentadecanoylamino)-ethoxy]-ethoxy}-ethoxy)-ethoxy]-propionyl-γ-glutamyl desB30 human insulin [example 3]  14
7. N^εB29-(3-(2-{2-[2-(2-{2-[2-(2-{2-[2-(2-{2-[2-(13-carboxy-tridecanoylamino)-ethoxy]-ethoxy}-ethoxy)-ethoxy]-ethoxy}-ethoxy)-ethoxy]-ethoxy}-ethoxy)-ethoxy]-ethoxy}-ethoxy)-propionoyl-γ-glutamyl) desB30 human insulin [example 14]  15
8. N^εB29-(3-[2-(2-{2-[2-(15-carboxypentadecanoylamino)ethoxy]ethoxy}ethoxy)-ethoxy]propionyl)) desB30 human insulin [example 13]  17
9. N^εB29-(3-(2-{2-[2-(15-Carboxy-pentadecanoylamino)-ethoxy]-ethoxy}-ethylcarbamoyl)-propionyl-γ-glutamyl) desB30 human insulin [example 17]  17
10. N^εB29-(3-(2-{2-[2-(9-carboxynonanoylamino)ethoxy]ethoxy}ethylcarbamoyl) propionyl-γ-glutamyl) desB30 human insulin [example 10]  27
11. N^εB29-(3-[2-(2-{2-[2-(2-{2-[2-(13-carboxy-tridecanoylamino)-ethoxy]-ethoxy)-ethoxy)-ethoxy]-ethoxy}-ethoxy)-ethoxy]-ethoxy}-propionoyl-γ-glutamyl) desB30 human insulin [example 16]  31
12. N^εB29-(3-(3-{4-[3-(7-Carboxyheptanoylamino)propoxy]butoxy}propylcarbamoyl)-propionyl-γ-glutamyl) desB30 human insulin [example 8]  34
13. N^εB29-(3-(3-{2-[2-(3-[9-Carboxynonanoylamino]propoxy)ethoxy]ethoxy}-propylcarbamoyl)propionyl) desB30 human insulin [example 9]  34
14. N^εB29-(3-[2-(2-(2-[2-(13-Carboxy-tridecanoylamino)-ethoxy)-ethoxy]-ethoxy)-ethoxy]-propionoyl-γ-glutamyl) desB30 human insulin [example 15]  35
15. N^εB29-(3-(3-{2-[2-(3-[7-carboxyheptanoylamino]propoxy)ethoxy]-ethoxy}propylcarbamoyl)propionyl) desB30 human insulin [example 7]  35
